# What was measured:
# [1] = test system: A. Niger ATCC 9642; assay: Activity against yeast and mold, 0.3% test solutions; assay type: cell-based, Aspergillus niger; set-up: key: + Growth; − No Growth
# Source text: Activity against yeast and mold:
# [2] = test system: BC (B. cepacia); assay: Preservative challenge test, screening emulsion; assay type: cell-based, Burkholderia cepacia
# Description: (§1) A typical cosmetic emulsion was prepared for microbiological challenge testing and predetermined admixtures of a methylol compound and IPBC were added at various use levels. The emulsion thus prepared had the following composition:
# (§2) To prepare the emulsion, Phases A and B were heated separately to 75°–80° C. Phase A then was added to Phase B with mixing. The mixture then was cooled to 55°–60° C. At this point the desired amount of the preservative admixture was added and the product was cooled to 50° C. while stirring. The citric acid solution then was added to adjust the pH and the mixture was stirred until a temperature of 30° C. was reached.
# (§3) The challenge tests were carried out using the following microorganisms: SA, ECOLI, PSA, PC, AN and CAN, in this manner. 50 g aliquots of the test emulsion containing various amounts of the preservative admixture were inoculated with approximately 10^7–10^8 of the challenge organisms. The test samples then were stirred to disperse the challenge inoculum. The samples were incubated and assayed at 48 hours, 7, 14, 21 and 28 days. The assays were performed on 1 g of the test sample by serially diluting 10^1 to 10^6 of the original concentration. The plating medium for bacteria was Letheen agar and for fungi it was low pH Mycophil agar with Tween 20. Each plated sample was incubated for 48 hours at 37° C. for bacteria, 5 days at 25° C. for mold, and 3 days at 25° C. for fungi. After incubation, readings of the number of colonies per milliliter (cfu/ml) were made. At 21 days the test product was reinoculated with half of the original inoculum.
# [3] = test system: BC (B. cepacia); assay: Preservative challenge test, nonionic emulsion; assay type: cell-based, Burkholderia cepacia
# Description: as §1, §3
# [4] = test system: AN (Aspergillus niger); assay: Preservative challenge test, screening emulsion; assay type: cell-based
# Description: as §1, §2, §3
# [5] = test system: SA (Staphylococcus aureus); assay: Preservative challenge test, screening emulsion; assay type: cell-based
# Description: as §1, §2, §3
# [6] = test system: CAN (Candida albicans); assay: Preservative challenge test, screening emulsion; assay type: cell-based
# Description: as §1, §2, §3
# [7] = test system: EC (ECOLI, Escherichia coli); assay: Preservative challenge test, screening emulsion; assay type: cell-based
# Description: as §1, §2, §3
# [8] = test system: PSA (Pseudomonas aeruginosa); assay: Preservative challenge test, screening emulsion; assay type: cell-based
# Description: as §1, §2, §3
compound,measurement,setting,value
O=C1C(N(CO)C(=O)NCO)N(CO)C(=O)N1CO (centres unmarked) [Germall II],"Growth, A. Niger ATCC 9642(for 3 Days)",[1],−
same,"cfu/ml, 48 hrs",[2]; 250 ppm,<10 cfu/ml
same,"cfu/ml, 7 days",[2]; 250 ppm,<10 cfu/ml
same,"cfu/ml, 14 days",[2]; 250 ppm,<10 cfu/ml
same,"cfu/ml, 21 days",[2]; 250 ppm,<10 cfu/ml
same,"cfu/ml, 28 days",[2]; 250 ppm,<10 cfu/ml
same,"cfu/ml, 48 hrs",[2]; 500 ppm,<10 cfu/ml
same,"cfu/ml, 7 days",[2]; 500 ppm,<10 cfu/ml
same,"cfu/ml, 14 days",[2]; 500 ppm,<10 cfu/ml
same,"cfu/ml, 21 days",[2]; 500 ppm,<10 cfu/ml
same,"cfu/ml, 28 days",[2]; 500 ppm,<10 cfu/ml
same,"cfu/ml, 48 hrs",[2]; 1000 ppm,<10 cfu/ml
same,"cfu/ml, 7 days",[2]; 1000 ppm,<10 cfu/ml
same,"cfu/ml, 14 days",[2]; 1000 ppm,<10 cfu/ml
same,"cfu/ml, 21 days",[2]; 1000 ppm,<10 cfu/ml
same,"cfu/ml, 28 days",[2]; 1000 ppm,<10 cfu/ml
same,"cfu/ml, 48 hrs",[2]; 2000 ppm,<10 cfu/ml
same,"cfu/ml, 7 days",[2]; 2000 ppm,<10 cfu/ml
same,"cfu/ml, 14 days",[2]; 2000 ppm,<10 cfu/ml
same,"cfu/ml, 21 days",[2]; 2000 ppm,<10 cfu/ml
same,"cfu/ml, 28 days",[2]; 2000 ppm,<10 cfu/ml
same,"cfu/ml, 48 hrs",[3]; 2000 ppm,<10 cfu/ml
same,"cfu/ml, 7 days",[3]; 2000 ppm,<10 cfu/ml
same,"cfu/ml, 14 days",[3]; 2000 ppm,<10 cfu/ml
same,"cfu/ml, 21 days",[3]; 2000 ppm,<10 cfu/ml
same,"cfu/ml, 28 days",[3]; 2000 ppm,<10 cfu/ml
same,"cfu/ml, 48 hrs",[3]; 4000 ppm,<10 cfu/ml
same,"cfu/ml, 7 days",[3]; 4000 ppm,<10 cfu/ml
same,"cfu/ml, 14 days",[3]; 4000 ppm,<10 cfu/ml
same,"cfu/ml, 21 days",[3]; 4000 ppm,<10 cfu/ml
same,"cfu/ml, 28 days",[3]; 4000 ppm,<10 cfu/ml
same,"cfu/ml, 48 hrs",[4]; 250 ppm,"50,000 cfu/ml"
same,"cfu/ml, 7 days",[4]; 250 ppm,<10 cfu/ml
same,"cfu/ml, 14 days",[4]; 250 ppm,<10 cfu/ml
same,"cfu/ml, 21 days",[4]; 250 ppm,<10 cfu/ml
same,"cfu/ml, 28 days",[4]; 250 ppm,100 cfu/ml
same,"cfu/ml, 48 hrs",[4]; 500 ppm,40 cfu/ml
same,"cfu/ml, 7 days",[4]; 500 ppm,<10 cfu/ml
same,"cfu/ml, 14 days",[4]; 500 ppm,<10 cfu/ml
same,"cfu/ml, 21 days",[4]; 500 ppm,<10 cfu/ml
same,"cfu/ml, 28 days",[4]; 500 ppm,<10 cfu/ml
same,"cfu/ml, 48 hrs",[4]; 1000 ppm,<10 cfu/ml
same,"cfu/ml, 7 days",[4]; 1000 ppm,<10 cfu/ml
same,"cfu/ml, 14 days",[4]; 1000 ppm,<10 cfu/ml
same,"cfu/ml, 21 days",[4]; 1000 ppm,<10 cfu/ml
same,"cfu/ml, 28 days",[4]; 1000 ppm,<10 cfu/ml
same,"cfu/ml, 48 hrs",[4]; 2000 ppm,<10 cfu/ml
same,"cfu/ml, 7 days",[4]; 2000 ppm,<10 cfu/ml
same,"cfu/ml, 14 days",[4]; 2000 ppm,<10 cfu/ml
same,"cfu/ml, 21 days",[4]; 2000 ppm,<10 cfu/ml
same,"cfu/ml, 28 days",[4]; 2000 ppm,<10 cfu/ml
same,"cfu/ml, 48 hrs",[5]; 250 ppm,"55,000 cfu/ml"
same,"cfu/ml, 7 days",[5]; 250 ppm,<10 cfu/ml
same,"cfu/ml, 14 days",[5]; 250 ppm,<10 cfu/ml
same,"cfu/ml, 21 days",[5]; 250 ppm,<10 cfu/ml
same,"cfu/ml, 28 days",[5]; 250 ppm,<10 cfu/ml
same,"cfu/ml, 48 hrs",[5]; 500 ppm,"17,000 cfu/ml"
same,"cfu/ml, 7 days",[5]; 500 ppm,<10 cfu/ml
same,"cfu/ml, 14 days",[5]; 500 ppm,<10 cfu/ml
same,"cfu/ml, 21 days",[5]; 500 ppm,<10 cfu/ml
same,"cfu/ml, 28 days",[5]; 500 ppm,<10 cfu/ml
same,"cfu/ml, 48 hrs",[5]; 1000 ppm,<10 cfu/ml
same,"cfu/ml, 7 days",[5]; 1000 ppm,<10 cfu/ml
same,"cfu/ml, 14 days",[5]; 1000 ppm,<10 cfu/ml
same,"cfu/ml, 21 days",[5]; 1000 ppm,<10 cfu/ml
same,"cfu/ml, 28 days",[5]; 1000 ppm,<10 cfu/ml
same,"cfu/ml, 48 hrs",[5]; 2000 ppm,<10 cfu/ml
same,"cfu/ml, 7 days",[5]; 2000 ppm,<10 cfu/ml
same,"cfu/ml, 14 days",[5]; 2000 ppm,<10 cfu/ml
same,"cfu/ml, 21 days",[5]; 2000 ppm,<10 cfu/ml
same,"cfu/ml, 28 days",[5]; 2000 ppm,<10 cfu/ml
same,"cfu/ml, 48 hrs",[6]; 250 ppm,"290,000 cfu/ml"
same,"cfu/ml, 7 days",[6]; 250 ppm,"170,000 cfu/ml"
same,"cfu/ml, 14 days",[6]; 250 ppm,"71,000 cfu/ml"
same,"cfu/ml, 21 days",[6]; 250 ppm,"46,000 cfu/ml"
same,"cfu/ml, 28 days",[6]; 250 ppm,"680,000 cfu/ml"
same,"cfu/ml, 48 hrs",[6]; 500 ppm,"170,000 cfu/ml"
same,"cfu/ml, 7 days",[6]; 500 ppm,"100,000 cfu/ml"
same,"cfu/ml, 14 days",[6]; 500 ppm,"90,000 cfu/ml"
same,"cfu/ml, 21 days",[6]; 500 ppm,"320,000 cfu/ml"
same,"cfu/ml, 28 days",[6]; 500 ppm,"930,000 cfu/ml"
same,"cfu/ml, 48 hrs",[6]; 1000 ppm,"160,000 cfu/ml"
same,"cfu/ml, 7 days",[6]; 1000 ppm,"78,000 cfu/ml"
same,"cfu/ml, 14 days",[6]; 1000 ppm,"63,000 cfu/ml"
same,"cfu/ml, 21 days",[6]; 1000 ppm,"260,000 cfu/ml"
same,"cfu/ml, 28 days",[6]; 1000 ppm,"210,000 cfu/ml"
same,"cfu/ml, 48 hrs",[6]; 2000 ppm,150 cfu/ml
same,"cfu/ml, 7 days",[6]; 2000 ppm,"9,600 cfu/ml"
same,"cfu/ml, 14 days",[6]; 2000 ppm,"48,900 cfu/ml"
same,"cfu/ml, 21 days",[6]; 2000 ppm,"490,000 cfu/ml"
same,"cfu/ml, 28 days",[6]; 2000 ppm,"210,000 cfu/ml"
same,"cfu/ml, 48 hrs",[7]; 250 ppm,5500 cfu/ml
same,"cfu/ml, 7 days",[7]; 250 ppm,<10 cfu/ml
same,"cfu/ml, 14 days",[7]; 250 ppm,<10 cfu/ml
same,"cfu/ml, 21 days",[7]; 250 ppm,<10 cfu/ml
same,"cfu/ml, 28 days",[7]; 250 ppm,<10 cfu/ml
same,"cfu/ml, 48 hrs",[7]; 500 ppm,610 cfu/ml
same,"cfu/ml, 7 days",[7]; 500 ppm,<10 cfu/ml
same,"cfu/ml, 14 days",[7]; 500 ppm,<10 cfu/ml
same,"cfu/ml, 21 days",[7]; 500 ppm,<10 cfu/ml
same,"cfu/ml, 28 days",[7]; 500 ppm,<10 cfu/ml
same,"cfu/ml, 48 hrs",[7]; 1000 ppm,<10 cfu/ml
same,"cfu/ml, 7 days",[7]; 1000 ppm,<10 cfu/ml
same,"cfu/ml, 14 days",[7]; 1000 ppm,<10 cfu/ml
same,"cfu/ml, 21 days",[7]; 1000 ppm,<10 cfu/ml
same,"cfu/ml, 28 days",[7]; 1000 ppm,<10 cfu/ml
same,"cfu/ml, 48 hrs",[7]; 2000 ppm,<10 cfu/ml
same,"cfu/ml, 7 days",[7]; 2000 ppm,<10 cfu/ml
same,"cfu/ml, 14 days",[7]; 2000 ppm,<10 cfu/ml
same,"cfu/ml, 21 days",[7]; 2000 ppm,<10 cfu/ml
same,"cfu/ml, 28 days",[7]; 2000 ppm,<10 cfu/ml
same,"cfu/ml, 48 hrs",[8]; 250 ppm,<10 cfu/ml
same,"cfu/ml, 7 days",[8]; 250 ppm,<10 cfu/ml
same,"cfu/ml, 14 days",[8]; 250 ppm,<10 cfu/ml
same,"cfu/ml, 21 days",[8]; 250 ppm,<10 cfu/ml
same,"cfu/ml, 28 days",[8]; 250 ppm,<10 cfu/ml
same,"cfu/ml, 48 hrs",[8]; 500 ppm,<10 cfu/ml
same,"cfu/ml, 7 days",[8]; 500 ppm,<10 cfu/ml
same,"cfu/ml, 14 days",[8]; 500 ppm,<10 cfu/ml
same,"cfu/ml, 21 days",[8]; 500 ppm,<10 cfu/ml
same,"cfu/ml, 28 days",[8]; 500 ppm,<10 cfu/ml
same,"cfu/ml, 48 hrs",[8]; 1000 ppm,<10 cfu/ml
same,"cfu/ml, 7 days",[8]; 1000 ppm,<10 cfu/ml
same,"cfu/ml, 14 days",[8]; 1000 ppm,<10 cfu/ml
same,"cfu/ml, 21 days",[8]; 1000 ppm,<10 cfu/ml
same,"cfu/ml, 28 days",[8]; 1000 ppm,<10 cfu/ml
same,"cfu/ml, 48 hrs",[8]; 2000 ppm,<10 cfu/ml
same,"cfu/ml, 7 days",[8]; 2000 ppm,<10 cfu/ml
same,"cfu/ml, 14 days",[8]; 2000 ppm,<10 cfu/ml
same,"cfu/ml, 21 days",[8]; 2000 ppm,<10 cfu/ml
same,"cfu/ml, 28 days",[8]; 2000 ppm,<10 cfu/ml
